Tests used:
patients with AKI [1] = test system: patients with AKI; design: species or system human; settings: in vivo
all ICU patients = settings: literature and/or clinical trials; cited from earlier work
[2] = test system: Fridericia-corrected QTc interval; settings: 32 mg, 15 minute infusion, cited from earlier work
ICU patients with AKI = settings: literature and/or clinical trials; cited from earlier work
patients with AKI [3] = settings: human, in vivo
patients with AKI [4] = settings: human, in vivo; remark: listed apart in the source
Intestine of rats = settings: cited from earlier work
[5] = test system: patients without AKI on admission or prior to receiving drug; assay: Anti-emetic usage and AKI risk in first ICU encounter: usage, max KDIGO category, binary logistic regression (Example 3); type: in vivo, human
Excerpt: Study Population: The study population excludes patients with end-stage kidney disease and excludes patients with Acute Kidney Injury on admission or prior to receiving drug. […] Metoclopramide is primarily a dopamine D2 receptor antagonist anti-emetic. […] Prochlorperazine is primarily a dopamine receptor antagonist anti-emetic. […] This was a binary logistic regression with an outcome of experiencing any AKI within a first ICU encounter. The independent variable was use of anti-emetic prior to AKI (or before discharge if no AKI). […] The independent variable was use of anti-emetic prior to AKI (or before discharge if no AKI). […] The outcome was experiencing any AKI. The […] was the use of medication within the average time prior to AKI.

ICU patients = assay: Anti-emetic use and in-ICU death, logistic regression (Example 3); type: in vivo, human; settings: outcome in-ICU death; use of medication within average time prior to AKI
patients with AKI [6] = assay: Validation in eICU database: propensity score matching, chi-square test of ICU mortality (Example 4); type: in vivo, human
[7] = 84 mg-kg in water by oral gavage 0.25d vs vehicle
[8] = gene negatively correlated with eGFR in human AKI cohort
[9] = rat intestine, 84 mg-kg oral gavage, 0.25d vs vehicle
[10] = drug users, use before discharge/death or before AKI
[11] = after matching, 3423 patients in group

SMILES: Cc1nccn1CC1CCc2c(c3ccccc3n2C)C1=O (centres unmarked) [Ondansetron]
- Coefficient (patients with AKI [1]): −0.035
- Reported for protecting effect in all ICU patients (all ICU patients): N
- maximum mean (upper limit of 90% CI) difference in QTcF from placebo after baseline-correction ([2]; at 20 minutes): 19.6 (21.5) msec
- period in which prolongation of QTcF was observed after start of infusion [2]: 15 to 240 min
- Reported for protecting effect in ICU patients with AKI (ICU patients with AKI): N
- Death rate in eICU database (patients with AKI [3]): 124.87 per 1,000 patients
- Death rate in MIMIC III database (patients with AKI [4]): 140.91 per 1,000 patients
- average death rate (patients with AKI [4]): 14.1%
- Genes (differentially expressed genes in bioset) (Intestine of rats; [7]): 1,815
- down-regulated genes (Intestine of rats; [7]): 722
- up-regulated genes (Intestine of rats; [7]): 1,093
- Gene expression fold change by Ondansetron treatment: AMACR (Intestine of rats; [8]): −2.38
- Gene expression fold change by Ondansetron treatment: CASP1 (Intestine of rats; [8]): −8.03
- Gene expression fold change by Ondansetron treatment: CPD (Intestine of rats; [8]): −2.4
- Gene expression fold change by Ondansetron treatment: GBP2 (Intestine of rats; [8]): −4.71
- Gene expression fold change by Ondansetron treatment: KPNA2 (Intestine of rats; [8]): 1.68
- Gene expression fold change by Ondansetron treatment: MCL1 (Intestine of rats; [8]): −3.07
- Gene expression fold change by Ondansetron treatment: MET (Intestine of rats; [8]): −2.32
- Gene expression fold change by Ondansetron treatment: TFPI (Intestine of rats; [8]): 4.25
- gene expression fold change: Axin2 (Intestine of rats; [9]): 2.12
- gene expression fold change: Birc2 (Intestine of rats; [9]): −2.85
- gene expression fold change: Casp3 (Intestine of rats; [9]): −4.18
- gene expression fold change: Cdc42 (Intestine of rats; [9]): −1.7
- gene expression fold change: Cdkn2b (Intestine of rats; [9]): −3.79
- gene expression fold change: Crk (Intestine of rats; [9]): −2.78
- gene expression fold change: Ctbp2 (Intestine of rats; [9]): −10.3
- gene expression fold change: Ctnna1 (Intestine of rats; [9]): −2.95
- gene expression fold change: Ctnnb1 (Intestine of rats; [9]): −6.88
- gene expression fold change: Cycs (Intestine of rats; [9]): −2.08
- gene expression fold change: Erbb2 (Intestine of rats; [9]): −2.24
- gene expression fold change: Fn1 (Intestine of rats; [9]): −10.3
- gene expression fold change: Gsk3b (Intestine of rats; [9]): 2.3
- gene expression fold change: Hdac1 (Intestine of rats; [9]): 1.52
- gene expression fold change: Itgb1 (Intestine of rats; [9]): −3.18
- gene expression fold change: Jak1 (Intestine of rats; [9]): −10.7
- gene expression fold change: Kras (Intestine of rats; [9]): −2.58
- gene expression fold change: Lamb2 (Intestine of rats; [9]): −4.03
- gene expression fold change: Mapk1 (Intestine of rats; [9]): −4.09
- gene expression fold change: Mapk3 (Intestine of rats; [9]): −1.98
- gene expression fold change: Mapk9 (Intestine of rats; [9]): −5.48
- gene expression fold change: Mecom (Intestine of rats; [9]): 1.46
- gene expression fold change: Met (Intestine of rats; [9]): −2.32
- gene expression fold change: Msh2 (Intestine of rats; [9]): −2.29
- gene expression fold change: Mtor (Intestine of rats; [9]): −1.75
- gene expression fold change: Pdgfrb (Intestine of rats; [9]): 1.49
- gene expression fold change: Pik3r1 (Intestine of rats; [9]): −3.77
- gene expression fold change: Plcg2 (Intestine of rats; [9]): −1.63
- gene expression fold change: Pld1 (Intestine of rats; [9]): −5.95
- gene expression fold change: Prkcb (Intestine of rats; [9]): −3.73
- gene expression fold change: Pten (Intestine of rats; [9]): −4.92
- gene expression fold change: Raf1 (Intestine of rats; [9]): 1.51
- gene expression fold change: Rb1 (Intestine of rats; [9]): −9.02
- gene expression fold change: Smo (Intestine of rats; [9]): −2.45
- gene expression fold change: Sos2 (Intestine of rats; [9]): 2.47
- gene expression fold change: Tgfa (Intestine of rats; [9]): −3.86
- gene expression fold change: Tgfb1 (Intestine of rats; [9]): −1.54
- gene expression fold change: Tgfb3 (Intestine of rats; [9]): 1.83
- gene expression fold change: Tpr (Intestine of rats; [9]): −1.93
- MAX KDIGO AKI Category 0 (%) [5, 10]: 73.54%
- MAX KDIGO AKI Category 0, number of patients [5, 10]: 32,447
- MAX KDIGO AKI Category 1 (%) [5, 10]: 13.92%
- MAX KDIGO AKI Category 1, number of patients [5, 10]: 6,143
- MAX KDIGO AKI Category 2 (%) [5, 10]: 6.68%
- MAX KDIGO AKI Category 2, number of patients [5, 10]: 2,946
- MAX KDIGO AKI Category 3 (%) [5, 10]: 5.87%
- MAX KDIGO AKI Category 3, number of patients [5, 10]: 2,588
- Odds Ratio ([5]; outcome any AKI within first ICU encounter, use of anti-emetic prior to AKI (or before discharge if no AKI)): 0.403
- Odds Ratio ([5]; outcome any AKI, use of medication within the average time prior to AKI): 0.906
- Odds Ratio ([5]; outcome any AKI, use of medication within the average time prior to AKI, listed as ondansetron): protective
- Odds Ratio (ICU patients): 0.460
- Alive (patients) (patients with AKI [6]; [11]): 2993
- Death (patients) (patients with AKI [6]; [11]): 430
- ICU mortality (patients with AKI [6]; after propensity score matching, 3,423 patients per group): 12.56%
- Number Need to Treat (NNT) (patients with AKI [6]; eICU patients, 95% confidence interval 23.61, 103.72): 38.46

Source: US20240009173A1, “Use of 5-HT3-Targeting Drugs for Treatment of Acute Kidney Injury” (priority 2020, published 2024)
